Values joined by “and” are separate entries in the source; they are usually repeats but may differ in a detail not shown here. Equal values may be shown once.
Key:
P. berghei hepatic stage = assay: In vitro activity against the hepatic stage of P. berghei infection (luciferase, Huh7 cells); format: cell-based, Plasmodium berghei; settings: hepatic stage, Huh7 cells, 46 hpi
Experimental: The in vitro liver stage activity of gold complexes was assessed against P. berghei-infected Huh7 cells, as previously described. Briefly, Huh7 cells were cultured in RPMI-1640 medium supplemented with 10% (v/v) fetal bovine serum, 1% (v/v) penicillin/streptomycin, 1% (v/v) glutamine, 1% (v/v) non-essential amino acids and 10 mM HEPES. On the day prior to infection, Huh7 cells were seeded in 96-well plates at a density of approximately 3.1 × 10^4 cell/cm^2 and incubated at 37 °C, 5% CO2. Stock solutions of the complexes were initially prepared in DMSO and serially diluted in infection medium, i.e., culture medium supplemented with gentamicin (50 µg/mL) and fungizone (0.8 µg/mL), to obtain the test concentrations. As a control, DMSO was diluted in infection medium to a percentage that equals that of the highest compound concentrations tested. These dilutions were added to the cells in triplicates and incubated for 1 h at 37 °C, 5% CO2, after which 1 × 10^4 luciferase-expressing P. berghei sporozoites were added to each well. Plates were centrifuged at 1800× g for 5 min at room temperature and incubated for the duration of the assay. At 46 h post-infection (hpi), the impact of each compound concentration on cell viability was assessed by the Alamar Blue (Invitrogen, Buckinghamshire, UK) assay, according to the manufacturer’s recommendations. Infection was next assessed by bioluminescence, employing the Firefly Luciferase Assay Kit 2.0 (Biotium, Fremont, CA, USA), according to the manufacturer’s recommendations. For IC50 determination, nonlinear regression analysis was employed to fit the normalized results of the dose–response curves, using GraphPad Prism 8 (GraphPad software, La Jolla, CA, USA).

C. albicans SC5134 = assay: MIC determination, C. albicans; format: cell-based, Candida albicans; settings: RPMIG, 24 h, 35 °C
Source text: (§1) The bacterial strains Escherichia coli ATCC25922 and Staphylococcus aureus Newman were used in this work and maintained in Lennox Broth (LB) solid medium, composed of 10 g/L tryptone, 5 g/L yeast extract, 5 g/L NaCl and 20 g/L agar. The fungal strains Candida albicans SC5134 and C. glabrata CBS138 were used in this work and maintained in YPD solid medium, composed of 20 g/L glucose, 20 g/L peptone, 10 g/L yeast extract and 15 g/L agar. The strains were isolated from human infections.
(§2) The antimicrobial activity of the complexes towards the bacterial and fungal strains was assessed by the determination of the Minimal Inhibitory Concentration (MIC) of each complex towards the indicated microbial strains, based on standard methods, and as previously described. […] Serial 1:2 dilutions of stock solutions were prepared for each complex in Mueller–Hinton (MH) broth (Fluka Analytical) or RPMI-1640 medium (Sigma) supplemented with 20 g/L glucose and buffered with 0.165 M morpholinepropanesulphonic acid (RPMIG) to pH 7.0. Solutions prepared with MH were used for testing bacteria, while those prepared with RPMIG were used for testing fungi. For antibacterial activity assays, the final concentrations ranged from 250 to 0.24 μg/mL (when stock solution final concentration was 10 mg/mL), 125 μg/mL to 0.12 μg/mL (when stock solution final concentration was 5 mg/mL) and 62.5 to 0.06 μg/mL (when stock solution final concentration was 2.5 mg/mL). For antifungal assays, the final concentrations ranged from 125 μg/mL to 0.12 μg/mL (when stock solution final concentration was 10 mg/mL), 62.5 to 0.06 μg/mL (when stock solution final concentration was 5 mg/mL) and 31.25 to 0.03 μg/mL (when stock solution final concentration was 2.5 mg/mL). Then, 100 μL aliquots of adequately diluted bacterial suspensions of S. aureus Newman or E. coli ATCC 25922 were mixed with the MH serially diluted complexes aliquots to obtain 5 × 10^5 CFU/mL. In the case of fungi, cultures were diluted to obtain a final optical density of 0.025, measured at 530 nm (OD530). Bacterial suspensions were prepared from cultures grown for 5 h in MH broth at 37 °C and 250 rev·min^−1 and adequately diluted with fresh MH medium, while fungal suspensions were prepared from overnight cultures grown in YPD broth at 30 °C and 250 rev.min^−1 and diluted in buffered RPMIG. After 22 h of incubation at 37 °C (bacteria) or 24 h at 35 °C (fungi), the wells’ content was resuspended by pipetting and the OD640 (bacteria) or OD530 (fungi) were measured in a SPECTROstar Nano microplate reader (BMG Labtech).
(§3) At least three independent experiments were performed in duplicate for each complex under study. […] Positive (no complex) and negative controls (no inoculum) were performed for each experiment. The effect of 5% (V/V) DMSO on microbial growth was also assessed.

[1] = test system: OVCAR8 ovarian cancer cells; assay: MTT cytotoxicity assay in OVCAR8 (cisplatin resistant) ovarian cancer cells; format: cell-based, human; settings: 48 h incubation
How it was run: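 Cells in RPMI-1640 with 10% FBS exposed to complexes at 0.01–100 μM for 24 and/or 48 h at 37 °C. Viability by colorimetric MTT; IC50 derived from dose–response curves.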

E. coli ATCC25922 = assay: MIC determination, E. coli; format: cell-based, Escherichia coli; settings: MH broth, 22 h, 37 °C
Source text: as §1, §2, §3

C. glabrata CBS138 = assay: MIC determination, C. glabrata; format: cell-based, Candida glabrata; settings: RPMIG, 24 h, 35 °C
Source text: as §1, §2, §3

S. aureus Newman = assay: MIC determination, S. aureus; format: cell-based, Staphylococcus aureus; settings: MH broth, 22 h, 37 °C
Source text: as §1, §2, §3

| Structure (SMILES) | IC50 (P. berghei hepatic stage) [nM] | MIC C. albicans SC5134 (C. albicans SC5134) | IC50 [1] [nM] | MIC E. coli ATCC25922 (E. coli ATCC25922) | MIC C. glabrata CBS138 (C. glabrata CBS138) [µg/mL] | MIC S. aureus Newman (S. aureus Newman) |
| --- | --- | --- | --- | --- | --- | --- |
| CCn1c2c(sc1=S)[S][Au-]1([S]c3sc(=S)n(CC)c3[S]1)[S]2.c1ccc([P+](c2ccccc2)(c2ccccc2)c2ccccc2)cc1 [[P][AuSEt(=S)]] | 474 ± 110 | >62.5 µg/mL | 850 ± 190 | >125 µg/mL | >62.5 | >125 µg/mL |
| CCn1c2c(sc1=[Se])[S][Au-]1([S]c3sc(=[Se])n(CC)c3[S]1)[S]2.c1ccc([P+](c2ccccc2)(c2ccccc2)c2ccccc2)cc1 [[P][AuSEt(=Se)]] | 416 ± 123 | >62.5 µg/mL | 970 ± 180 | >125 µg/mL | >62.5 | >125 µg/mL |
| CC(C)n1c2c(sc1=S)[Se][Au-]1([Se]c3sc(=S)n(C(C)C)c3[Se]1)[Se]2.c1ccc([P+](c2ccccc2)(c2ccccc2)c2ccccc2)cc1 [[P][AuSeiPr(=S)]] | 748 ± 70.2 | >31.25 µg/mL | 3860 ± 910 | >62.5 µg/mL | >31.25 | >62.5 µg/mL |
| CCCCn1c2c(sc1=S)[S][Au-]1([S]c3sc(=S)n(CCCC)c3[S]1)[S]2.c1ccc([P+](c2ccccc2)(c2ccccc2)c2ccccc2)cc1 [[P][AuSBu(=S)]] | 470 ± 115 | >62.5 µg/mL | 1410 ± 560 | >125 µg/mL | >62.5 | >125 µg/mL |
| CC(=O)OC[C@H]1O[C@@H]([S-])[C@H](OC(C)=O)[C@@H](OC(C)=O)[C@@H]1OC(C)=O.CCP(CC)CC.[Au+] [Auranofin, reference compound] | – | 7.9 µg/mL and 7.9 ± 0.5 µg/mL | 1040 ± 410 | 35.5 µg/mL and 35.5 ± 0.6 µg/mL | 15.2 ± 0.6 | 0.2 µg/mL and 0.173 ± 0.004 µg/mL |

— PMC9266914, “Broad Spectrum Functional Activity of Structurally Related Monoanionic Au(III) Bis(Dithiolene) Complexes” (International Journal of Molecular Sciences, 2022)
